Consider nine compounds from US4010282A, “Anti-arrhythmic agents” (Knoll A.G. Chemische Fabriken, priority 1974, dated 1977).

Like-named read-outs stand apart in the source and are kept apart here.

The test system of data set [1] is left auricle of the guinea pig. The data set is described as follows: functional refractory period of the left auricle of the guinea pig using paired electrical stimulation (anti-arrhythmic effect). Conditions: for activation at 10 µM: 10^-^5 Mol/l; for activation at 100 µM: 10^-^4 Mol/l; for Anti-arrhythmic Effect (Prolongation of the Refractory Period) ED25: dose which lengthens the refractory period by 25 percent, up to 30 minutes after addition to bath liquid. An excerpt:
(§1) Jovier, J. Pharmakol. Exp. Therap. 148, 100-105 (1965). In this experimental arrangement, the numerous anti-arrhythmic agents, of different chemical structure and different therapeutic points of attack in man, heretofore used in therapy are all characterized by a lengthening of the functional refractory period. The method additionally permits determining the effects of the substance on the contractile force of the heart muscle [Reuter and Heeg, Naunyn-Schmiedeberg's Arch. Pharmak. 268, 323-333 (1971) and Zetler and Strubelt, Naunyn-Schmiedeberg's Arch. Pharmak. 271, 335-345 (1971)]. It is, thus, highly suitable for detecting substances having a large therapeutic breadth, i.e., with a large margin of safety between anti-arrhythmically- and negative inotropically-effective doses.
The testing of the substances employed up to 30 individual experiments in each case. For the determination of the effective dose, linear regression functions were calculated [cf. A. Lindner, Statistische Methoden, 3rd Edition, Birkhaeuser Verlag, Basel (1969)], in which the maximum percentage deviations from the starting value in a time period up to 30 minutes after addition of the test substance to the bath liquid was employed.
(§2) In column I of following Table 1, one of the new compounds and known anti-arrhythmic agents are entered. Column II gives the anti-arrhythmic effect. Column III reports the inotropic effect. The therapeutic breadth of the compounds is given in column IV. The ED25 is the effective dose which lengthens the refractory period by 25 percent or lowers the contractile force by 25 percent.

Data set [2] deals with rats. The data set can be described thus: aconitine-induced disturbance of the heart rhythm in rats (electrocardiogram). In kind it is in vivo. To be noted: for ED25 / ED50: Rattus norvegicus. An excerpt:
The anti-arrhythmic effect of the diamines could also be confirmed in intact research animals with an experimentally-induced disturbance of the heart rhythm. If rats are continuously infused intravenously with aconitine, severe disturbances in the heartbeat sequence, such as extrasystoles, ventricular tachycardia, and ventricular flutter, which eventually lead to the death of the experimental animal, can be detected in an electrocardiogram. By a pre-treatment with the new pharmaceutical agents, the appearance of these threatening disturbances of the heart rhythm can be hindered or, on continuous administration of aconitine, can be considerably delayed. This experimental model of arrhythmia has already been checked for its evidentiary value using clinically tested standard therapeutic agents and is highly suitable for an experimental animal characterization of anti-arrhythmic agents [cf. Bianchi et al., Arzneim. Forsch. 18, 845-850 (1968); Haas and Busch, Arzneim. Forsch. 18, 401-407 (1968); Haas et al., Arzneim. Forsch. 21, 1392-1399 (1971); Marmo, Naunyn-Schmiedeberg's Arch. Pharmak. 269, 231-247 (1971); and Strubelt et al., Naunyn-Schmiedeberg's Arch. Pharmak. 271, 346-360 (1971)].
The ED25 and ED50 are the intravenous or oral doses in mg/kg that permit a 25 percent or 50 percent increase in the dosage of aconitine administered, versus the aconitine control, until the occurrence of extrasystoles, ventricular tachycardia, and ventricular flutter.

Data set [3] concerns left auricle of the guinea pig. The data set is described as follows: inotropic effect: decrease in contractile force of the heart muscle. Conditions: for Therapeutic Breadth (III/II): ratio ED25 inotropic / ED25 anti-arrhythmic.
Description: as §1, with “148, 100-105 (1965).” left out, “268, 323-333 (1971) and Zetler and Strubelt, Naunyn-Schmiedeberg's Arch.” left out, “271, 335-345 (1971)].” left out
The testing of the substances employed up to 30 individual experiments in each case. For the determination of the effective dose, linear regression functions were calculated [cf.
as §2

The mark [4] stands for this setting: Cavia porcellus, read-out: Anti-arrhythmic Effect (% Prolongation of the Refractory Period).
Setting [5] is: iv, read-out: Ventr. Tachycardia ED25.
[6] abbreviates: iv, read-out: Ventr. Tachycardia ED50.
[7] abbreviates: dose which lowers the contractile force by 25 percent, up to 30 minutes after addition to bath liquid.

Turning to `Clc1ccc(CNCCCNCc2ccc(Cl)cc2)cc1` [N,N'-di-(4'-chlorobenzyl)-1,3-diaminopropane], in data set [1] (setting [4]), the activation at 10 µM stood at 37%.

As to `c1ccc(CNCCCNCc2ccccc2)cc1`, the ED25 in data set [2] (iv, read-out: Extrasystoles ED25) worked out at 5.2 mg/kg; in data set [2] (iv, read-out: Ventr. Flutter ED25), 4.9 mg/kg; in data set [2] (setting [5]), 5.3 mg/kg; in data set [2] (po, read-out: Extrasystoles ED25), 65.8 mg/kg; in data set [2] (po, read-out: Ventr. Flutter ED25), 51.1 mg/kg; in data set [2] (po, read-out: Ventr. Tachycardia ED25), 55.4 mg/kg. In addition, the ED50 came to 6 mg/kg in data set [2] (iv, read-out: Extrasystoles ED50); 6.4 mg/kg in data set [2] (iv, read-out: Ventr. Flutter ED50); 6.2 mg/kg in data set [2] (setting [6]); 96.2 mg/kg in data set [2] (po, read-out: Extrasystoles ED50); 69.9 mg/kg in data set [2] (po, read-out: Ventr. Flutter ED50); 71.6 mg/kg in data set [2] (po, read-out: Ventr. Tachycardia ED50). The “effect in aconitine arrhythmia” value in data set [2] (Table 3, parenterally as well as orally) is “superior effect”. Also, the “Inotropic Effect (Decrease in Contractile Force) ED25” value in data set [3] (guinea pig) worked out at 0.141. Moreover, in data set [3], the “Therapeutic Breadth (III/II)” value was determined as 2.6. Moreover, the activation at 100 µM in data set [1] (setting [4]) stood at 47%. For the same compound, the “Anti-arrhythmic Effect (Prolongation of the Refractory Period) ED25” value (shortened to “Anti-arrhythmic Effect”) in data set [1] is given as 0.054.

`COc1ccc(CNCCCNCc2ccc(OC)c(OC)c2)cc1OC` [N,N'-di-(m,p-dimethoxybenzyl)propylenediamine]: the activation at 100 µM in data set [1] (setting [4]) was 42%.

Regarding `c1ccc(CNCCNCc2ccccc2)cc1` [N,N'-dibenzyl-ethylenediamine], the activation at 100 µM in data set [1] (setting [4]) was 39%.

As to `C1CCN2C[C@@H]3C[C@@H](CN4CCCC[C@@H]34)[C@H]2C1` [SPARTEINE, reference compound], the ED25 in data set [2] (setting [5]) worked out at 4.4 mg/kg. Moreover, the ED50 in data set [2] (setting [6]) amounted to 9.6 mg/kg.

For `Clc1ccc(CNCCCNCc2ccc(Cl)c(Cl)c2)cc1Cl` [N,N'-di-(m,p-dichlorobenzyl)-propylenediamine], the activation at 10 µM in data set [1] (setting [4]) stood at 26%.

As for `CCC[N+]12C(O)C(CC)C3CC1C1N(C)c4ccccc4C14CC2C3C4O` (stereo not drawn) [N,n-propylajmaline, N-propylajmaline], the “Inotropic Effect (Decrease in Contractile Force) ED25” value in data set [3] (setting [7]) is on record as 0.0015. The “Therapeutic Breadth (III/II)” value in data set [3] amounted to 0.4. Also, in data set [1], the “Anti-arrhythmic Effect” value is given as 0.0037.

Consider `c1ccc(CN(CC2=NCCN2)c2ccccc2)cc1` [Antazoline, antazoline], for which, in data set [3] (setting [7]), the “Inotropic Effect (Decrease in Contractile Force) ED25” value is 0.094. For the same compound, the “Therapeutic Breadth (III/II)” value in data set [3] came to 0.6. Besides, the “Anti-arrhythmic Effect” value in data set [1] was found to be 0.164.

Consider `Clc1cccc(CNCCCNCc2cccc(Cl)c2)c1` [N,N'-di-(3'-chlorobenzyl)-propylene-1,3-diamine], for which the activation at 20 µM in data set [1] (Cavia porcellus, 2 × 10^-^5 Mol/l, read-out: Anti-arrhythmic Effect (% Prolongation of the Refractory Period)) was 45%.
